Patent publication US20200369630A1, “HERBICIDALLY ACTIVE 3-PHENYL-5-TRIFLUOROMETHYLISOXAZOLINE-5-CARBOXAMIDES OF CYCLOPENTYLCARBOXYLIC ACIDS AND ESTERS” (Bayer Aktiengesellschaft, priority 2017, published 2020)

Assays:
Assay in all cases: Post-emergence herbicidal action
Type in all cases: in vivo
[1] = tested on: DIGSA; details: Table C3, post-emergence, 320 g/ha, rated visually after about 3 weeks
Protocol: (§1) Seeds of monocotyledonous and dicotyledonous weeds and crop plants are placed in sandy loam in plastic or wood-fiber pots, covered with soil and cultivated in a greenhouse under controlled growth conditions. 2 to 3 weeks after sowing, the test plants are treated at the one-leaf stage. The compounds of the invention, formulated in the form of wettable powders (WP) or as emulsion concentrates (EC), are then sprayed onto the green parts of the plants as aqueous suspension or emulsion with addition of 0.5% additive at a water application rate of […] (converted). After the test plants had been kept in the greenhouse under optimum growth conditions for about 3 weeks, the activity of the preparations is rated visually in comparison to untreated controls. For example, 100% activity=the plants have died, 0% activity=like control plants.

[2] = tested on: AMARE: Amaranthus retroflexus; details: rated visually after about 3 weeks
Protocol: as §1, with “[table] Seeds” for “Seeds”

[3] = tested on: VIOTR: Viola tricolor; details: Table C3, post-emergence, 320 g/ha, rated visually after about 3 weeks
Protocol: as §1, with “[table] Seeds” for “Seeds”

[4] = tested on: POLCO: Polygonum convolvulus; details: rated visually after about 3 weeks
Protocol: as §1, with “[table] Seeds” for “Seeds”

[5] = tested on: LOLRI: Lolium rigidum; details: rated visually after about 3 weeks
Protocol: as §1, with “[table] Seeds” for “Seeds”

[6] = tested on: ALOMY: Alopecurus myosuroides; details: rated visually after about 3 weeks
Protocol: as §1, with “[table] Seeds” for “Seeds”

[7] = tested on: VERPE: Veronica persica; details: rated visually after about 3 weeks
Protocol: as §1, with “[table] Seeds” for “Seeds”

[8] = tested on: HORMU: Hordeum murinum; details: rated visually after about 3 weeks
Protocol: as §1, with “[table] Seeds” for “Seeds”

[9] = tested on: AVEFA: Avena fatua; details: rated visually after about 3 weeks
Protocol: as §1, with “[table] Seeds” for “Seeds”

[10] = tested on: ECHCG: Echinochloa crus-galli; details: rated visually after about 3 weeks
Protocol: as §1, with “[table] Seeds” for “Seeds”

[11] = tested on: SETVI: Setaria viridis; details: Table C3, post-emergence, 320 g/ha, rated visually after about 3 weeks
Protocol: as §1, with “[table] Seeds” for “Seeds”

[12] = tested on: STEME: Stellaria media; details: Table C2, post-emergence, dosage 320 (0.32 kg of active substance per hectare), rated visually after about 3 weeks
Protocol: as §1, with “[table] Seeds” for “Seeds”

[13] = Table C3, post-emergence, 320 g/ha
[14] = Table C2, post-emergence, dosage 320 (0.32 kg of active substance per hectare)

Row | SMILES | Herbicidal action against [%] DIGSA [1] [%] | Herbicidal action against [%] AMARE [2, 13] [%] | Herbicidal action against [%] VIOTR [3] [%] | Herbicidal action against [%] POLCO [4, 13] [%] | Herbicidal action against [%] LOLRI [5, 13] [%] | Herbicidal action against [%] ALOMY [6, 13] [%] | Herbicidal action against [%] VERPE [7, 13] [%] | Herbicidal action against [%] HORMU [8, 13] [%] | Herbicidal action against [%] AVEFA [9, 13] [%] | Herbicidal action against [%] ECHCG [10, 13] [%] | Herbicidal action against [%] SETVI [11] [%] | Herbicidal action against [%] AMARE [2, 14] [%] | Herbicidal action against [%] POLCO [4, 14] [%] | Herbicidal action against [%] LOLRI [5, 14] [%] | Herbicidal action against [%] STEME [12] [%] | Herbicidal action against [%] ALOMY [6, 14] [%] | Herbicidal action against [%] VERPE [7, 14] [%] | Herbicidal action against [%] HORMU [8, 14] [%] | Herbicidal action against [%] AVEFA [9, 14] [%] | Herbicidal action against [%] ECHCG [10, 14] [%]
1 | COC(=O)C1CCC(NC(=O)C2(C(F)(F)F)CC(c3cc(C)cc(F)c3)=NO2)C1 (mixture of isomers) [Example I-537] | 90 | 100 | 100 | 90 | 90 | 90 | 100 | 80 | 90 | 100 | 90 | – | – | – | – | – | – | – | – | –
2 | Cc1cc(F)cc(C2=NOC(C(=O)NC3CCC(C(=O)OCCCl)C3)(C(F)(F)F)C2)c1 (mixture of isomers) [Example I-574] | 80 | 100 | 80 | 80 | 90 | 100 | 90 | 80 | 100 | 90 | 90 | – | – | – | – | – | – | – | – | –
3 | Cc1cc(F)cc(C2=NOC(C(=O)NC3CCC(C(=O)OCC(F)(F)F)C3)(C(F)(F)F)C2)c1 (mixture of isomers) [Example I-580] | 90 | 90 | 100 | 80 | 90 | 90 | 90 | 90 | 100 | 80 | 90 | – | – | – | – | – | – | – | – | –
4 | CCOC(=O)C1CCC(NC(=O)C2(C(F)(F)F)CC(c3cc(C)cc(Cl)c3)=NO2)C1 (mixture of isomers) [Example I-808] | 90 | 80 | 80 | 100 | 90 | 90 | 90 | 90 | 90 | 80 | 90 | – | – | – | – | – | – | – | – | –
5 | CC(C)(C)OC(=O)[C@@H]1CC[C@H](NC(=O)[C@@]2(C(F)(F)F)CC(c3cc(F)cc(F)c3)=NO2)C1 [Example I-95] | – | – | – | – | – | – | – | – | – | – | – | 80 | 90 | 100 | 90 | 90 | 80 | 90 | 100 | 80
6 | O=C(OCCCl)[C@@H]1CC[C@H](NC(=O)[C@@]2(C(F)(F)F)CC(c3cc(F)cc(F)c3)=NO2)C1 [Example I-109, 2-chloroethyl-(1R,3S)-3-({[(5R)-3-(3,5-difluorophenyl)-5-(trifluoromethyl)-4,5-dihydro-1,2-oxazol-5-yl]carbonyl}amino)cyclopentanecarboxylate] | – | – | – | – | – | – | – | – | – | – | – | 80 | 80 | 80 | 90 | 90 | 80 | 90 | 90 | 90
7 | O=C(OCC(F)(F)F)[C@@H]1CC[C@H](NC(=O)[C@@]2(C(F)(F)F)CC(c3cc(F)cc(F)c3)=NO2)C1 [Example I-123] | – | – | – | – | – | – | – | – | – | – | – | 80 | 90 | 100 | 90 | 90 | 80 | 90 | 90 | 80
